Laboratory results published in patent US20140296147A1, “METHODS OF TREATING OR PREVENTING BLOOD LOSS DURING SURGERY USING THE SERINE PROTEASE INHIBITOR MDCO-2010” (THE MEDICINES COMPANY, priority 2011, published 2014).
Like-named read-outs stand apart in the source and are kept apart here. Marks after values point to notes of the source that are not given here.

Legend:
[1] = target: coagulation Factor XIa (Homo sapiens, UniProt P03951); settings: cited from earlier work
[2] = target: plasma kallikrein (Homo sapiens, UniProt P03952); settings: active-site directed, reversible, no cofactor; cited from earlier work
Sequence of plasma kallikrein (P03952 391-638 limits assumed): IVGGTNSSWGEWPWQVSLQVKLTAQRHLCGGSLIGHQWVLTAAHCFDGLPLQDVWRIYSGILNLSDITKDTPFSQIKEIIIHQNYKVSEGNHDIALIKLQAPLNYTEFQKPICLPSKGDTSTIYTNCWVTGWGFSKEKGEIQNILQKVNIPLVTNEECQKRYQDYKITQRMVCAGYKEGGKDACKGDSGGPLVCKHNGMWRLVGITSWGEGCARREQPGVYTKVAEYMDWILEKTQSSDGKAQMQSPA
Sequence of plasma kallikrein (P03952 20-390 partner limits assumed): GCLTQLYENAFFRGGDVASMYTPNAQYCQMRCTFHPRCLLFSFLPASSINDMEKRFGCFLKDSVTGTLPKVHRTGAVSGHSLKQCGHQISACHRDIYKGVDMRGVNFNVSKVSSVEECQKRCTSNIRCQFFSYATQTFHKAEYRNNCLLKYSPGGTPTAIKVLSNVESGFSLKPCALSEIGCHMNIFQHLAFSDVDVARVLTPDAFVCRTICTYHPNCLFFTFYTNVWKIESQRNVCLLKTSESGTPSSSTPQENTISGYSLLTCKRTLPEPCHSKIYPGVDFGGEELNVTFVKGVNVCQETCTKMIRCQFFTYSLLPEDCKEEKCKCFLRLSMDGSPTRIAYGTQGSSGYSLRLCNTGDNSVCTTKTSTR

[3] = system: patients undergoing elective, primary CABG (coronary artery bypass graft) surgery; assay: Safety markers and safety profile in CABG patients; assay type: in vivo, human
Method: (§1) A Phase IIa, single-center, double-blind, placebo-controlled dose-escalation study was performed to investigate MDCO-2010 in patients undergoing elective, primary CABG (coronary artery bypass graft) surgery.
(§2) Initial heparin dosing (400 units/kg) and heparin maintenance was guided by the Hepcon HMS, with a kaolin ACT target of 480 seconds. Immediately after heparin bolus, study drug administration was initiated with a loading (bolus) dose followed by a continuous infusion of the maintenance dose via a central venous catheter until sternal closure. Patients were randomized in a 3:1 ratio to receive either one of five MDCO-2010 doses (continuous infusion of 12.5, 25, 62.5, 109 or 219 μg/kg/h maintenance dose; 24 patients) or saline as placebo (8 patients).

[4] = target: plasmin (Homo sapiens, UniProt P00747); settings: active-site directed, reversible, no cofactor; cited from earlier work
Sequence of plasmin (P00747 581-810 limits assumed): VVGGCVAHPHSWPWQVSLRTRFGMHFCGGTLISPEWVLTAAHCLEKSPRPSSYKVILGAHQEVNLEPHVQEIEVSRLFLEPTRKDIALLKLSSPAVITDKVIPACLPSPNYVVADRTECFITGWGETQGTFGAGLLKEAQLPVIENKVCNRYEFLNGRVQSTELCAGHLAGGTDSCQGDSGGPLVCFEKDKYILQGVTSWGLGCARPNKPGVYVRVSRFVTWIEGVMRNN
Sequence of plasmin (P00747 97-580 partner limits assumed): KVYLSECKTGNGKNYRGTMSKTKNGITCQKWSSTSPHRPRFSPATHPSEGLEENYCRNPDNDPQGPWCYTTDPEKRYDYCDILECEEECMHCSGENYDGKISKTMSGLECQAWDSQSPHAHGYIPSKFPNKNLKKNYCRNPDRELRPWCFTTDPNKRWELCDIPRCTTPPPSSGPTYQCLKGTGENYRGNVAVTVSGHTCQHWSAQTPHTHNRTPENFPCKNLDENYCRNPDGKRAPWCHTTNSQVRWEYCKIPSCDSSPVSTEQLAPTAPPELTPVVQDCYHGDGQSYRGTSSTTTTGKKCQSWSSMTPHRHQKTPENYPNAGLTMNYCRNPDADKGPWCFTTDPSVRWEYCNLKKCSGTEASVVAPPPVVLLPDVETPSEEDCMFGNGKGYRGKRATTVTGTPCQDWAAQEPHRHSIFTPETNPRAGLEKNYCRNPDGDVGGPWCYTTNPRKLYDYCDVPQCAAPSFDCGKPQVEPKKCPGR

[5] = system: patients undergoing elective, primary CABG (coronary artery bypass graft) surgery; assay: Phase IIa placebo-controlled dose-escalation study: postoperative blood loss and transfusions; assay type: in vivo, human
Method: as §1
After independent ethics committee approval and written informed consent, thirty two patients underwent CABG surgery (patient characteristics shown in Table 1) through midline sternotomy using minimized extracorporeal circulation (MECC, priming volume of 600 mL).
as §2, with “patients). […]” for “patients).”
loading dose 5 μg/kg, maintenance dose 12.5 μg/kg/h; pump prime 0.02 mg; 3 patients loading dose 11 μg/kg, maintenance dose 25 μg/kg/h; pump prime 0.04 mg; 3 patients loading dose 27 μg/kg, maintenance dose 62.5 μg/kg/h; pump prime 0.09 mg; 6 patients loading dose 47 μg/kg, maintenance dose 109 μg/kg/h; pump prime 0.18 mg; 6 patients loading dose 94 μg/kg, maintenance dose 219 μg/kg/h; pump prime 0.35 mg; 6 patients The loading dose was administered over a five minute period of time in a 10 mL infusion. The maintenance dose was administered as a continuous infusion with a constant flow rate of 23 mL/h for the duration of procedure. MDCO-2010 was also added to the pump prime fluid to the targeted plasma concentration. The pump prime was supplied as a 10 mL load.

[6] = target: coagulation Factor Xa (Homo sapiens, UniProt P00742); settings: cited from earlier work
Sequence of coagulation Factor Xa (P00742 235-488 limits assumed): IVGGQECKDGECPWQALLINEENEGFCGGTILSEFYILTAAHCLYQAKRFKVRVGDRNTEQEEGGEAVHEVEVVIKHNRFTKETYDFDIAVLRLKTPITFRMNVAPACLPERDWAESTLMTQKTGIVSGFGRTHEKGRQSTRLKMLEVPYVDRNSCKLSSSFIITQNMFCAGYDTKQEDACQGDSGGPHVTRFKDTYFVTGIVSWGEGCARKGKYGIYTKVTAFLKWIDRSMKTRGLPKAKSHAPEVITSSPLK
Sequence of coagulation Factor Xa (P00742 41-179 partner limits assumed): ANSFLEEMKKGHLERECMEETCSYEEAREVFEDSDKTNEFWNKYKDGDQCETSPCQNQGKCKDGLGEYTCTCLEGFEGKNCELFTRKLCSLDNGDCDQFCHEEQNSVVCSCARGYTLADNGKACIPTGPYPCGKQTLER

[7] = system: intrinsic and extrinsic pathways; assay: Anticoagulant effect: ACT, aPTT and ROTEM coagulation times in CABG patients; assay type: in vivo, human; settings: five escalating doses, FIG. 3
Method: as §1, §2

[8] = Plasma pharmacokinetics of MDCO-2010 (LC/MS/MS, non-compartmental analysis) during CABG surgery; assay type: in vivo, human; settings: for half-life / clearance / Vd / AUC(0-inf) / AUC(0-t) / Cmax: human, plasma
Method: Nominal blood sampling times for PK analysis were pre-dose (T1, pre-heparin) and at 10 min (pre-CBP), 15 min, 30 min, 60 min (or just before cessation of CPB), at the end of infusion (sternal closure), 15 min, 30 min, and at 4 hours post-end of infusion. Actual times were calculated for each patient and used for PK analysis.
MDCO-2010 was measured in plasma by liquid chromatography with tandem mass spectrometry (LC/MS/MS).
Plasma concentrations versus time data were analyzed by non-compartmental analysis using the program WinNonlin Professional Version 5.3 (Pharsight, Mountain View, Calif., USA). Actual sampling times were used for the evaluation.
The following parameters were determined: • AUC0-tlast=area under the MDCO-2010 concentration versus time curve from dosing time to the last time point with a value above the lower limit of quantitation (LLOQ), calculated by linear/log trapezoidal method which uses the linear trapezoidal rule up to Cmax and log trapezoidal rule for the remainder of the curve • AUC0-inf=area under the concentration-time curve from […]; calculated as AUC0-tlast+AUCexpol, where AUCexpol=Clast/λ • Css=steady-state plasma concentration calculated by taking the average of the concentrations in T4 to T7 • Cmax=maximum concentration, directly taken from measured values • t1/2=apparent terminal elimination half-life determined by log-linear regression • CL=total body clearance • Vss=volume of distribution at steady state
Descriptive statistics (number of subjects, arithmetic means, standard deviation (SD), geometric means, medians, minimum and maximum values) were determined for all PK variables, separately for each treatment. Values below the LLOQ of the assay were taken as zero for descriptive statistics of concentrations. For AUC calculations, values below LLOQ were taken as zero if no quantifiable concentrations were found before the value, as missing if quantifiable concentrations were found before and after the value, and also as missing if quantifiable concentrations were found before, but not after the value. Mean (±SD) concentration time plots were provided for each treatment group using linear and semi-logarithmic scale.
Dose proportionality was assessed by the power model using SAS Version 9 (SAS Institute Inc., Cary, N.C.).
The mean values for PK parameters per dose group (mean (±SD) pharmacokinetic variables of MDCO-2010 administered via IV infusion during CABG surgery based on non-compartmental analysis) are summarized in Table 3.

[9] = system: tPA-induced fibrinolysis; assay: Antifibrinolytic effect: D-dimer generation and tPA-induced lysis in CABG patients; assay type: in vivo, human; settings: five escalating doses, FIG. 2
Method: as §1, §2

[10] = target: activated Protein C (Homo sapiens, UniProt P04070); settings: cited from earlier work
Sequence of activated Protein C (P04070 212-461 limits assumed): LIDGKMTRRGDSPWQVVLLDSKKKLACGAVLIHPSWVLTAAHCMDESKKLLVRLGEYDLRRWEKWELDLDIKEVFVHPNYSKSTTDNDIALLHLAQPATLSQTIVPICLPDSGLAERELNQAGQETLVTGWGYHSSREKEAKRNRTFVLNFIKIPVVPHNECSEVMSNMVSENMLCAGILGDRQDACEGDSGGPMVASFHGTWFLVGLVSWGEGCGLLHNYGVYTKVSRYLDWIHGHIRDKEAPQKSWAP
Sequence of activated Protein C (P04070 43-197 partner limits assumed): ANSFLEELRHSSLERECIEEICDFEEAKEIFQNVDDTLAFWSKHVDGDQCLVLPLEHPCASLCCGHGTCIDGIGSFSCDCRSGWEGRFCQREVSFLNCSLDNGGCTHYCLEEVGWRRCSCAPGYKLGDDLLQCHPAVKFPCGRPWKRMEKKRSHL

[11] = Cohort 1 (N = 3): loading dose 5 μg/kg, maintenance dose 12.5 μg/kg/h
[12] = Cohort 2 (N = 3): loading dose 11 μg/kg, maintenance dose 25 μg/kg/h
[13] = Cohort 3 (N = 6): loading dose 27 μg/kg, maintenance dose 62.5 μg/kg/h
[14] = Cohort 4 (N = 6): loading dose 47 μg/kg, maintenance dose 109 μg/kg/h
[15] = Cohort 5 (N = 6): loading dose 94 μg/kg, maintenance dose 219 μg/kg/h, 1 patient received additional heparin without protamine reversal
[16] = Cohort 1, mean dose 1.88 mg, IV infusion during CABG surgery, mean
[17] = Cohort 2, mean dose 4.99 mg, IV infusion during CABG surgery, mean
[18] = Cohort 3, mean dose 12.33 mg, IV infusion during CABG surgery, mean
[19] = Cohort 4, mean dose 19.57 mg, IV infusion during CABG surgery, mean
[20] = Cohort 5, mean dose 38.01 mg, IV infusion during CABG surgery, mean

Sequence of coagulation Factor XIa (P03951 388-625 limits assumed): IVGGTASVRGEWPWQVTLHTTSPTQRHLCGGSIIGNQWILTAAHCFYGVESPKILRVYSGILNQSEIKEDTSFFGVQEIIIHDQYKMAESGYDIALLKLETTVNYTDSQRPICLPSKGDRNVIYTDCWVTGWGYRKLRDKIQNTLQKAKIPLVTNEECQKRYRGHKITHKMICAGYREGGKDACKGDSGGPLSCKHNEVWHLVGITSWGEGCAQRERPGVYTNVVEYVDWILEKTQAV
Sequence of coagulation Factor XIa (P03951 19-387 partner limits assumed): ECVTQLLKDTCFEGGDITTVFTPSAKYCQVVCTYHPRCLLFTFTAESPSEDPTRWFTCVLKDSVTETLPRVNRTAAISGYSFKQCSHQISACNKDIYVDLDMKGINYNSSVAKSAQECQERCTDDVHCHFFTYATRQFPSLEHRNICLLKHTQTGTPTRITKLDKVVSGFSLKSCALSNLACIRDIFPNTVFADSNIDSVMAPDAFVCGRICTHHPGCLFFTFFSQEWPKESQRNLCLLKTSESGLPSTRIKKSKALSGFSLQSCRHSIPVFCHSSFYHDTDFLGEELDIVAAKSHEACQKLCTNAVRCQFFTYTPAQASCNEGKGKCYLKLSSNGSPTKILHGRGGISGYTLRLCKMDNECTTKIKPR

N=C(N)c1ccc(CNC(=O)[C@H](Cc2cccc(CN)c2)NC(=O)[C@@H](CCCc2ccccc2)NS(=O)(=O)Cc2cccc(C(=O)O)c2)cc1 [MDCO-2010, 3-({1-[2-(3-Aminomethyl-phenyl)-1-(4-carbamimidoyl-benzylcarbamoyl)-ethylcarbamoyl]-4-phenyl-butylsulfamoyl}-methyl)-benzoic acid]
inhibition of coagulation Factor XIa [1]: inhibits
inhibition of plasma kallikrein [2]: potent inhibitor
troponin T, CK-MB, prothrombin fragment F1+2, interleukins IL-6 and IL-10, ALAT, ASAT, serum creatinine vs. placebo ([3]; patients treated with MDCO-2010 vs. placebo, results not shown): No differences
safety profile of escalating doses ([3]; primary CABG surgery, first-in-patient study): acceptable safety profile
inhibition of plasmin [4]: potent inhibitor
12 hour postoperative chest tube drainage, median ± SD [5, 11]: 450 ± 172 mL
Average number of transfusions per patient [5, 11]: 0
Patients receiving transfusions [5, 11]: 0/3
12 hour postoperative chest tube drainage, median ± SD [5, 12]: 595 ± 125 mL
Average number of transfusions per patient [5, 12]: 0
Patients receiving transfusions [5, 12]: 0/3
Average number of transfusions per patient [5, 13]: 0.33
Patients receiving transfusions [5, 13]: 1/6
Average number of transfusions per patient [5, 14]: 0.17
Patients receiving transfusions [5, 14]: 1/6
Average number of transfusions per patient [5, 15]: 0.67†
Patients receiving transfusions [5, 15]: 2/6†
Chest tube drainage, incidence and volume of RBC transfusions vs. placebo ([5]; MDCO-2010 vs. placebo): significantly lower
inhibition of coagulation Factor Xa [6]: inhibits
ACT, aPTT and rotation thrombelastometry (ROTEM) coagulation times [7]: dose-related prolongation
Css [8, 16]: 50.06 ng/mL
Css [8, 17]: 96.31 ng/mL
Css [8, 18]: 268.21 ng/mL
Css [8, 19]: 478.86 ng/mL
Css [8, 20]: 1009.17 ng/mL
plasma levels during the infusion ([8]; continuous infusion, FIG. 1): stable
mean MDCO-2010 plasma concentrations versus dose ([8]; five escalating doses, CABG patients): linear dose-proportional increase
half-life ([8]; intravenous, following an approximately 100 minute infusion period, all cohorts, read-out: mean value for the elimination half-life): ~1.38 h
half-life ([8]; intravenous, after end of infusion, CABG patients, read-out: terminal half-life (converted)): 1 h
half-life ([8]; intravenous, range over cohorts, read-out: elimination half-life, range): 1.02 to 1.7 h
clearance ([8]; intravenous, 1.88 mg total dose, read-out: Total body clearance): 220 ± 78 mL/min
clearance ([8]; intravenous, 38.01 mg total dose, read-out: Total body clearance): 153 ± 19 mL/min
Vd ([8]; intravenous, all dose levels, read-out: Volume of distribution (Vss), range): 12 to 17 L
half-life ([8]; iv, 1.88 mg, Cohort 1, mean dose 1.88 mg, IV infusion during CABG surgery, mean, read-out: t1/2): 1.02 h
half-life ([8]; iv, 4.99 mg, Cohort 2, mean dose 4.99 mg, IV infusion during CABG surgery, mean, read-out: t1/2): 1.21 h
half-life ([8]; iv, 12.33 mg, Cohort 3, mean dose 12.33 mg, IV infusion during CABG surgery, mean, read-out: t1/2): 1.26 h
half-life ([8]; iv, 19.57 mg, Cohort 4, mean dose 19.57 mg, IV infusion during CABG surgery, mean, read-out: t1/2): 1.74 h
half-life ([8]; iv, 38.01 mg, Cohort 5, mean dose 38.01 mg, IV infusion during CABG surgery, mean, read-out: t1/2): 1.72 h
AUC(0-inf) [8, 16]: 152 ng·h/mL
AUC(0-t) [8, 16]: 125 ng·h/mL
Cmax [8, 16]: 54.8 ng/mL
clearance ([8]; Cohort 1, mean dose 1.88 mg, IV infusion during CABG surgery, mean, read-out: Cl): 220 mL/min
Vd ([8]; Cohort 1, mean dose 1.88 mg, IV infusion during CABG surgery, mean, read-out: Vss): 12.7 L
AUC(0-inf) [8, 17]: 334 ng·h/mL
AUC(0-t) [8, 17]: 278 ng·h/mL
Cmax [8, 17]: 114 ng/mL
clearance ([8]; Cohort 2, mean dose 4.99 mg, IV infusion during CABG surgery, mean, read-out: Cl): 263 mL/min
Vd ([8]; Cohort 2, mean dose 4.99 mg, IV infusion during CABG surgery, mean, read-out: Vss): 16.1 L
AUC(0-inf) [8, 18]: 991 ng·h/mL
AUC(0-t) [8, 18]: 905 ng·h/mL
Cmax [8, 18]: 288 ng/mL
clearance ([8]; Cohort 3, mean dose 12.33 mg, IV infusion during CABG surgery, mean, read-out: Cl): 199 mL/min
Vd ([8]; Cohort 3, mean dose 12.33 mg, IV infusion during CABG surgery, mean, read-out: Vss): 12.3 L
AUC(0-inf) [8, 19]: 1880 ng·h/mL
AUC(0-t) [8, 19]: 1640 ng·h/mL
Cmax [8, 19]: 564 ng/mL
clearance ([8]; Cohort 4, mean dose 19.57 mg, IV infusion during CABG surgery, mean, read-out: Cl): 179 mL/min
Vd ([8]; Cohort 4, mean dose 19.57 mg, IV infusion during CABG surgery, mean, read-out: Vss): 17.4 L
AUC(0-inf) [8, 20]: 4060 ng·h/mL
AUC(0-t) [8, 20]: 3620 ng·h/mL
Cmax [8, 20]: 1150 ng/mL
clearance ([8]; Cohort 5, mean dose 38.01 mg, IV infusion during CABG surgery, mean, read-out: Cl): 153 mL/min
Vd ([8]; Cohort 5, mean dose 38.01 mg, IV infusion during CABG surgery, mean, read-out: Vss): 15.1 L
plasma levels abated ([8]; within 4 hours of the end of infusion): 85%
antifibrinolytic effect (suppression of D-dimer generation and inhibition of tPA-induced lysis) [9]: dose-dependent antifibrinolytic effect
inhibition of activated Protein C [10]: inhibits
